Measurements reported in patent US20150268247A1, “Assay for Screening of Anti-Viral Compounds That Inhibit Specific Interaction Interfaces Between Cullin5 and an ElonginB/ElonginC/ CBF-beta/HIV-1 Vif Complex” (UNIVERSITY OF ROCHESTER, priority 2012, published 2015).
Residues, ends and D or L forms follow the SMILES beside them. *: point of attachment. 5FAM = O=C1OC2(c3ccc(O)cc3Oc3cc(O)ccc32)c2ccc(C(=O)*)cc21; Ahx = NCCCCCC(=O)O

molecular target: T1, Vif/EloB/C/CBFβ (UniProt P69723+Q15369); test: Fluorescence anisotropy of 5-FAM Cul5 peptides with Vif/EloB/C/CBFβ; type: binding, HIV-1 Vif; human EloB/C/CBFβ
T1 construct: Vif in the context of the Vif/EloB/C/CBFβ is full-length Vif (amino acids 1-192); co-expressing EloB1-118 and EloC17-112 from MCS1 and MCS2, respectively, from a pETDuet-1 vector (pEloBC); made in house; host or cells: E. coli BL21(DE3)
From the text: The dissociation constant (KD) for each interaction is provided.

Structure (SMILES)	Kd [µM]
CC(C)C[C@H](NC(=O)CCCCCNC(=O)c1ccc2c(c1)C(=O)OC21c2ccc(O)cc2Oc2cc(O)ccc21)C(=O)N[C@@H](CCCNC(=N)N)C(=O)N[C@@H](CCC(N)=O)C(=O)N[C@@H](CCC(=O)O)C(=O)N[C@@H](CO)C(=O)N[C@H](C(=O)N[C@H](C(=O)N[C@@H](CCCCN)C(=O)N[C@@H](CCC(N)=O)C(=O)N[C@@H](CCC(N)=O)C(=O)N[C@@H](Cc1c[nH]c2ccccc12)C(=O)O)[C@@H](C)O)C(C)C [Cul5(30-40)] ({5FAM-Ahx}-LRQESVTKQQW-OH)	16
CC(C)C[C@H](NC(=O)CCCCCNC(=O)c1ccc2c(c1)C(=O)OC21c2ccc(O)cc2Oc2cc(O)ccc21)C(=O)N[C@@H](Cc1ccccc1)C(=O)N[C@@H](CO)C(=O)N[C@@H](CC(=O)O)C(=O)N[C@H](C(=O)N[C@@H](Cc1c[nH]cn1)C(=O)N[C@@H](C)C(=O)N[C@H](C(=O)N[C@@H](CS)C(=O)N[C@@H](CC(C)C)C(=O)N[C@@H](Cc1c[nH]c2ccccc12)C(=O)N[C@@H](CC(=O)O)C(=O)O)C(C)C)C(C)C [Cul5(43-54)]	2.5
CC(C)C[C@H](NC(=O)[C@H](CS)NC(=O)[C@@H](NC(=O)[C@H](C)NC(=O)[C@H](Cc1c[nH]cn1)NC(=O)[C@@H](NC(=O)[C@H](CC(=O)O)NC(=O)[C@H](CO)NC(=O)[C@H](Cc1ccccc1)NC(=O)[C@H](CC(C)C)NC(=O)[C@H](CC(=O)O)NC(=O)[C@H](Cc1ccccc1)NC(=O)[C@H](Cc1c[nH]c2ccccc12)NC(=O)[C@H](CCC(N)=O)NC(=O)[C@H](CCC(N)=O)NC(=O)[C@H](CCCCN)NC(=O)CCCCCNC(=O)c1ccc2c(c1)C(=O)OC21c2ccc(O)cc2Oc2cc(O)ccc21)C(C)C)C(C)C)C(=O)N[C@@H](Cc1c[nH]c2ccccc12)C(=O)O [Cul5(37-53)] ({5FAM-Ahx}-KQQWFDLFSDVHAVCLW-OH)	1.2
CC[C@H](C)[C@H](NC(=O)[C@H](CCCCN)NC(=O)[C@H](C)NC(=O)[C@@H]1CCCN1C(=O)CNC(=O)[C@H](CCCCN)NC(=O)[C@H](CC(=O)O)NC(=O)[C@H](CC(=O)O)NC(=O)[C@H](Cc1c[nH]c2ccccc12)NC(=O)[C@H](CC(C)C)NC(=O)[C@H](CS)NC(=O)[C@@H](NC(=O)[C@H](C)NC(=O)[C@H](Cc1c[nH]cn1)NC(=O)[C@@H](NC(=O)[C@H](CC(=O)O)NC(=O)[C@H](CO)NC(=O)[C@H](Cc1ccccc1)NC(=O)[C@H](CC(C)C)NC(=O)CCCCCNC(=O)c1ccc2c(c1)C(=O)OC21c2ccc(O)cc2Oc2cc(O)ccc21)C(C)C)C(C)C)C(=O)N[C@@H](Cc1c[nH]cn1)C(=O)N[C@@H](CCC(N)=O)C(=O)N[C@@H](C)C(=O)N[C@@H](CC(C)C)C(=O)O [Cul5(43-65)]	4.7
